Reference: US7893220B2, “Busulfan immunoassay” (Saladax Biomedical Inc., priority 2004, dated 2011)

Tests used:
[1] = test system: busulfan antibodies (antisera of example 7); assay: Indirect competitive microtiter plate immunoassay (ELISA), busulfan derivative 7-BSA sensitized plates; assay type: binding, mouse; conditions: antibodies to Busulfan-KLH (example 7); plate coating Busulfan-BSA conjugate example 5, derivative 7; ratio of IC50 busulfan to IC50 analyte
Experimental: (§1) Ten Female BALB/c mice were immunized i.p. with 100 μg/mouse of Busulfan-BTG immunogen prepared in example 3 or with Busulfan-KLH immunogen prepared in example 4, emulsified in Complete Freund's Adjuvant. Mice were boosted once four weeks after the initial injection with 100 μg/mouse of the same immunogens emulsified in Incomplete Freund's Adjuvant. Ten or 28 days after the boost test bleeds from each mouse were obtained by orbital bleed. The anti-serum from these test bleeds contained Busulfan antibodies evaluated in Examples 9 , 10a and 10b.
The ELISA method for measuring busulfan concentrations was performed in polystyrene microtiter plates (Nunc MaxiSorp C8 or F8 Immunomodules) optimized for protein binding and containing 96 wells per plate. Each well was coated with busulfan-BSA conjugate (prepared as in example 5) by adding 300 μL of busulfan-BSA conjugate at 10 μg/mL in 0.05M sodium bicarbonate, pH=9.6, and incubating for three hours at room temperature. The wells were washed with 0.05M sodium bicarbonate, pH 9.6 and then were blocked with 400 μL of 5% sucrose, 0.2% sodium caseinate solution for 30 minutes at room temperature. After removal of the post-coat solution the plates were dried at 37° C. overnight.
(§2) The ELISA method for screening busulfan antibodies (produced in example 7) was performed with the microtiter plates that were sensitized with busulfan-BSA as described in examples 8a and 8b. The antibody screening assay was performed by diluting the antisera containing busulfan antibodies (of example 7) to 1:100, 1:1,000, 1:10,000 and 1:100,000 in phosphate buffered saline containing 0.1% BSA and 0.01% thimerosal. To each well of busulfan-BSA sensitized wells (prepared in examples 8a and 8b) 100 μL of diluted antibody was added and incubated for 10 minutes at room temperature with shaking. During this incubation antibody binds to the busulfan-conjugate in the well. The wells of the plates were washed three times with 0.02 M TRIS, 0.9% NaCl, 0.5% Tween-80 and 0.001% Thimerosal, pH 7.8 to remove any unbound antibody. […] Following the incubation for color development, 50 μL of stop solution (1.5% sodium fluoride in di H2O) was added to each well to stop the color development and after 10 seconds of shaking the absorbance was determined at 650 nm (Molecular Devices Plate Reader). The amount of antibody in a well was proportional to the absorbance measured and was expressed as the dilution (titer) resulting in an absorbance of 1.5. Titers were determined by graphing Log antibody dilution of the antibody measured (x-axis) vs. absorbance 650 nm (y-axis) and extrapolating the titer at an absorbance of 1.5. The titer determined the concentration (dilution) of antibody used in the indirect competitive Microtiter plate assay described in examples 10a and 10b. […]

[2] = test system: busulfan antibodies (antisera of example 7); assay: Indirect competitive microtiter plate immunoassay (ELISA), busulfan derivative 11-BSA sensitized plates; assay type: binding, mouse; conditions: antibodies to Busulfan-KLH (example 7); plate coating Busulfan-BSA conjugate example 6, derivative 11; ratio of IC50 busulfan to IC50 analyte
Experimental: as §1
The ELISA method for measuring busulfan concentrations was performed in polystyrene microtiter plates (Nunc MaxiSorp C8 or F8 Immunomodules) optimized for protein binding and containing 96 wells per plate. Each well was coated with busulfan-BSA conjugate (prepared as in example 6) by adding 300 μL of busulfan-BSA conjugate at 2.5 μg/mL in 7.5 μg/mL BSA, 0.05M sodium bicarbonate, pH=9.6, and incubating for three hours at room temperature. The wells were washed with 0.05M sodium bicarbonate, pH 9.6 and then were blocked with 400 μL of 5% sucrose, 0.2% sodium caseinate solution for 30 minutes at room temperature. After removal of the post-coat solution the plates were dried at 37° C. overnight.
as §2, with “well.” for “well. The wells of the plates were washed three times with 0.02 M TRIS, 0.9% NaCl, 0.5% Tween-80 and 0.001% Thimerosal, pH 7.8 to remove any unbound antibody.”

SMILES	Cross-Reactivity of Competitive Immunoassay [1] [%]	Cross-Reactivity of Competitive Immunoassay [2] [%]
CS(=O)(=O)OCCCCOS(C)(=O)=O [Busulfan]	100	100
C1CCSC1 [Tetrahydrothiophene, tetrahydrothiophene]	<0.4	<0.24
O=S1(=O)CCC(O)C1 (centres unmarked) [Tetrahydrothiophene-3-ol-1,1-dioxide, tetrahydrothiophene-3-ol-1,1-dioxide]	<0.4	<0.24
O=S1(=O)CCCC1 [Tetramethylene sulfone, tetramethylene sulfone]	<0.4	<0.24
